The source of these data is patent US7713937B2, “Synthetic peptide amides and dimeric forms thereof” (Cara Therapeutics, Inc., priority 2006, dated 2010).

Assay [1] addresses T1, mouse kappa opioid receptor (mKOR) (Mus musculus, UniProt P33534).
T1 construct: Stimulation of Endogenous Mouse Kappa-Opioid Receptor in R1.G1 Cells; host or cells: R1.G1 mouse thymoma cells
Description: cell-based. Conditions: for Emax: read-out: mKOR Efficacy(%).

Assay [2] concerns the target T2, human kappa opioid receptor (hKOR) (Homo sapiens, UniProt P41145).
T2 construct: expressed in transfected cells; host or cells: HEK-293 cells, transient transfection with Fugene6
The assay is described as follows: cell-based. Conditions: for Emax: HEK293, read-out: hKOR Efficacy(%).

Square brackets hold non-standard residues; d marks the D form. Peptide text beside a SMILES is read from it. * marks the point of attachment. Piperidin1yl(4-NH2,4-COOH) = NC1(C(=O)O)CCN(*)CC1; Homopiperazine(4-amidino) = N=C(N)N1CCCN(*)CC1; d(hArg) = N=C(N)NCCCC[C@@H](N)C(=O)O; dAgb = N=C(N)NCC[C@@H](N)C(=O)O; Homopiperazinyl = C1CNCCN(*)C1; dAgp = N=C(N)NC[C@@H](N)C(=O)O; dNle = CCCC[C@@H](N)C(=O)O; dOrn = NCCC[C@@H](N)C(=O)O; dDab = NCC[C@@H](N)C(=O)O; Inp = O=C(O)C1CCNCC1

T2 sequence (P41145 whole entry): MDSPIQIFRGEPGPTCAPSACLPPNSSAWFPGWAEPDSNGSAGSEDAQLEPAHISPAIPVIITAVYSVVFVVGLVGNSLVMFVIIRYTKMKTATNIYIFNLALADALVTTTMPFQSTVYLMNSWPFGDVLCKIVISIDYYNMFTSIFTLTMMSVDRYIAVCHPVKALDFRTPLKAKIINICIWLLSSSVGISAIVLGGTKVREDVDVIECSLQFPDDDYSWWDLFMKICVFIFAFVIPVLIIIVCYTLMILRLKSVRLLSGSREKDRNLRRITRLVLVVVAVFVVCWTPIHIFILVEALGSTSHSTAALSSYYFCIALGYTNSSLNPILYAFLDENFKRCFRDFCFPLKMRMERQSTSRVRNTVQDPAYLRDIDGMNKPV
T1 sequence (P33534 whole entry): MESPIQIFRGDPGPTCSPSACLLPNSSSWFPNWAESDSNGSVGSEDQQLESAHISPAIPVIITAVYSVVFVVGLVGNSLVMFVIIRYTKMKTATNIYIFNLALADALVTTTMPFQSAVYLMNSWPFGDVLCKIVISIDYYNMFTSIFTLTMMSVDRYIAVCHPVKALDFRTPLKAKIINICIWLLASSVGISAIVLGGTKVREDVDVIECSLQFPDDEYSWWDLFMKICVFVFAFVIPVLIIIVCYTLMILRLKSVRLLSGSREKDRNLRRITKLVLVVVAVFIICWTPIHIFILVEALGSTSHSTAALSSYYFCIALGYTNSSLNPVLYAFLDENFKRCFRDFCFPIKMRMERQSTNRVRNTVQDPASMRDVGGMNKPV

Broadly, the EC50 is the midpoint of the concentration-response curve. High values mean weaker potency, low ones greater potency. Consider `CC(C)C[C@@H](NC(=O)[C@@H](Cc1ccccc1)NC(=O)[C@H](N)Cc1ccccc1)C(=O)N[C@H](CCCN)C(=O)N1CCC(C(=O)O)CC1` [Compound (46), D-Phe-D-Phe-D-Leu-D-Orn-[Isonipecotic acid]-OH] (H-[dF][dF][dL][dOrn][Inp]-OH), for which, in assay [1], a half-maximal effect (EC50) was put at 88 pM and the Emax came out at 92%. For the same compound, in assay [2], it took 280 pM to reach a half-maximal effect (EC50) and the Emax is 128%.

Regarding `CC(C)C[C@@H](NC(=O)[C@@H](Cc1ccccc1)NC(=O)[C@H](N)Cc1ccccc1)C(=O)N[C@H](CCCN)C(=O)N1CCNC(C(=O)O)C1` (stereo partly drawn) [Compound (45), D-Phe-D-Phe-D-Leu-D-Orn-[ω(D/L-4-piperazine-2-carboxylic acid)]-OH], in assay [1], the EC50 is 197 pM and the Emax is 102%. Further, in assay [2], the EC50 amounted to 150 pM and the Emax is 93%.

Regarding `Cc1nnc(C)n1C1CCN(C(=O)[C@@H](CCCCN)NC(=O)[C@@H](CC(C)C)NC(=O)[C@@H](Cc2ccccc2)NC(=O)[C@H](N)Cc2ccccc2)CC1` [Compound (31), D-Phe-D-Phe-D-Leu-D-Lys-[4-(3,5-dimethyl-4H-1,2,4-triazol-4-yl)piperidine amide]], in assay [1], a half-maximal effect (EC50) was put at 21.6 pM and the Emax was found to be 86%. For the same compound, in assay [2], the midpoint of the response, the EC50, lay at 4.2 pM and the Emax was determined as 95%.

Consider `CC(C)C[C@@H](NC(=O)[C@@H](Cc1ccccc1)NC(=O)[C@H](N)Cc1ccccc1)C(=O)N[C@H](CCCCN)C(=O)N1CCS(=O)(=O)CC1` [Compound (71), D-Phe-D-Phe-D-Leu-D-Lys-[thiolmorpholine-1,1-dioxide amide]], for which, in assay [1], the EC50 came out at 192 pM and the Emax was found to be 89%. Moreover, in assay [2], the midpoint of the response, the EC50, lay at 30.6 pM and the Emax is 103%.

As for `CC(C)C[C@@H](NC(=O)[C@@H](Cc1ccccc1)NC(=O)[C@H](N)Cc1ccccc1)C(=O)N[C@H](CCCCN)C(=O)NCc1cn2ccccc2n1` [Compound (34), D-Phe-D-Phe-D-Leu-D-Lys-[imidazo[1,2-a]pyridine-2-ylmethyl amide]], the results for the EC50 in assay [1] and in assay [2] were 354 pM and 20.8 pM, respectively. For the same compound, the Emax in assay [1] turned out to be 90%; in assay [2], 101%.

Consider `CC(C)C[C@@H](NC(=O)[C@@H](Cc1ccccc1)NC(=O)[C@H](N)Cc1ccccc1)C(=O)N[C@H](CCCN)C(=O)N1CCC(CC(N)C(=O)O)CC1` (stereo partly drawn) [Compound (44), D-Phe-D-Phe-D-Leu-D-Orn-[ω(D/L-2-amino-3-(4-N-piperidinyl)propionic acid)]-OH], for which the EC50 in assay [1] came out at 28 pM; in assay [2] it was 130 pM. For the same compound, the Emax was determined as 102% in assay [1] and 104% in assay [2].

Regarding `CC(C)C[C@@H](NC(=O)[C@@H](Cc1ccccc1)NC(=O)[C@H](N)Cc1ccccc1)C(=O)N[C@H](CNC(=N)N)C(=O)N1CCCNCC1` [Compound (20), D-Phe-D-Phe-D-Leu-(β-amidino)D-Dap-[homopiperazine amide]] (H-[dF][dF][dL][dAgp]-Homopiperazinyl), in assay [1], the half-maximal effective concentration (EC50) came out at 491 pM and the Emax worked out at 102%. Moreover, in assay [2], the response was half-maximal at 390 pM (EC50) and the Emax was determined as 84%.

Consider `CC(C)C[C@@H](NC(=O)[C@@H](Cc1ccccc1)NC(=O)[C@H](N)Cc1ccccc1)C(=O)N[C@H](CCCCN)C(=O)N1CCN(S(=O)(=O)N(C)C)CC1` [Compound (67), D-Phe-D-Phe-D-Leu-D-Lys-[N,N-dimethylpiperazine-1-sulfonamide amide]], for which the EC50 in assay [1] was 193 pM; in assay [2], 19.4 pM. The Emax in assay [1] came to 86%; in assay [2] it was 101%.

For `CC(C)C[C@@H](NC(=O)[C@@H](Cc1ccccc1)NC(=O)[C@H](N)Cc1ccccc1)C(=O)N[C@H](CCCCN)C(=O)N1CCc2[nH]ncc2C1` [Compound (37), D-Phe-D-Phe-D-Leu-D-Lys-[4,5,6,7-tetrahydro-1H-pyrazolo[4,3-c]pyridine amide]], in assay [1], the EC50 was 23.4 pM and the Emax came out at 90%. For the same compound, in assay [2], the EC50 stood at 5.2 pM and the Emax is 100%.

Regarding `CC(C)C[C@@H](NC(=O)[C@@H](Cc1ccccc1)NC(=O)[C@H](N)Cc1ccccc1)C(=O)N[C@H](CNC(=N)N)C(=O)N1CCC(N)(C(=O)O)CC1` [Compound (10), D-Phe-D-Phe-D-Leu-(β-amidino)D-Dap-[ω(4-aminopiperidine-4-carboxylic acid)]-OH] (H-[dF][dF][dL][dAgp]-{Piperidin1yl(4-NH2,4-COOH)}), in assay [1], the EC50 stood at 826 pM and the Emax amounted to 90%. Further, in assay [2], the EC50 stood at 300 pM and the Emax worked out at 86%.

For `CC(C)C[C@@H](NC(=O)[C@@H](Cc1ccccc1)NC(=O)[C@H](N)Cc1ccccc1)C(=O)N[C@H](CCCCNC(C)C)C(=O)N1CCC(N)(C(=O)O)CC1` [Compound (9), D-Phe-D-Phe-D-Leu-(ε-iPr)D-Lys-[ω(4-aminopiperidine-4-carboxylic acid)]-OH], in assay [1], the EC50 turned out to be 78 pM and the Emax came to 96%. In addition, in assay [2], the EC50 was 170 pM and the Emax was found to be 90%.

On to `CC(C)C[C@@H](NC(=O)[C@@H](Cc1ccccc1)NC(=O)[C@H](N)Cc1ccccc1)C(=O)N[C@H](CCCCN)C(=O)NCc1ccc2[nH]c(=O)[nH]c2c1` [Compound (74), D-Phe-D-Phe-D-Leu-D-Lys-[5-(aminomethyl)-1H-benzo[d]imidazol-2(3H)-one amide]], for which, in assay [1], the EC50 came out at 72 pM and the Emax came to 87%. In assay [2], the EC50 is 6.3 pM and the Emax was found to be 99%.

In the case of `CC(C)C[C@@H](NC(=O)[C@@H](Cc1ccccc1)NC(=O)[C@H](N)Cc1ccccc1)C(=O)N[C@H](CCCN)C(=O)NCCCC[C@H](NC(=O)[C@H](N)CCCN)C(=O)N1CCNCC1` [Compound (81)], in assay [1], the 50% effective concentration (EC50) came to 50 pM and the Emax was found to be 96%. For the same compound, in assay [2], the EC50 worked out at 280 pM and the Emax came out at 96%.

As for `CC(C)C[C@@H](NC(=O)[C@@H](Cc1ccccc1)NC(=O)[C@H](N)Cc1ccccc1)C(=O)N[C@H](CCCCNC(=N)N)C(=O)N1CCCN(C(=N)N)CC1` [Compound (16), D-Phe-D-Phe-D-Leu-D-Har-[4-amidinohomopiperazine amide]] (H-[dF][dF][dL][d(hArg)]-{Homopiperazine(4-amidino)}), the EC50 in assay [1] is 21 pM; in assay [2] it was 110 pM. For the same compound, the Emax stood at 105% in assay [1] and 96% in assay [2].

For `CCN1CCCN(C(=O)[C@@H](CCCN)NC(=O)[C@@H](CC(C)C)NC(=O)[C@@H](Cc2ccccc2)NC(=O)[C@H](N)Cc2ccccc2)CC1` [Compound (55), D-Phe-D-Phe-D-Leu-D-Orn-[4-ethylhomopiperazine amide]], in assay [1], it took 49 pM to reach a half-maximal effect (EC50) and the Emax was determined as 99%. In assay [2], the EC50 turned out to be 140 pM and the Emax is 93%.

In the case of `CC(C)C[C@@H](NC(=O)[C@@H](Cc1ccccc1)NC(=O)[C@H](N)Cc1ccccc1)C(=O)N[C@H](CCNC(=N)N)C(=O)N1CCC(N)(C(=O)O)CC1` [Compound (11), D-Phe-D-Phe-D-Leu-D-Nar-[ω(4-aminopiperidine-4-carboxylic acid)]-OH] (H-[dF][dF][dL][dAgb]-{Piperidin1yl(4-NH2,4-COOH)}), in assay [1], the EC50 stood at 52 pM and the Emax is 92%. Further, in assay [2], the half-maximal effective concentration (EC50) is 150 pM and the Emax was found to be 82%.

On to `CC(C)C[C@@H](NC(=O)[C@@H](Cc1ccccc1)NC(=O)[C@H](N)Cc1ccccc1)C(=O)N[C@H](CCCN)C(=O)NCCN1CCN(CC(N)=O)CC1` [Compound (49), D-Phe-D-Phe-D-Leu-D-Orn-[4-(2-aminoethyl)-1-carboxymethyl-piperazine]-NH2], for which the EC50 was found to be 115 pM in assay [1] and 220 pM in assay [2]. Also, the Emax in assay [1] and in assay [2] was 96% throughout.

Take `CC(C)C[C@@H](NC(=O)[C@@H](Cc1ccccc1)NC(=O)[C@H](N)Cc1ccccc1)C(=O)N[C@H](CCN)C(=O)N1CCCN(C(=N)N)CC1` [Compound (22), D-Phe-D-Phe-D-Leu-D-Dbu-[4-amidinohomopiperazine amide]] (H-[dF][dF][dL][dDab]-{Homopiperazine(4-amidino)}): in assay [1], a half-maximal effect (EC50) was put at 95 pM and the Emax was found to be 103%. Further, in assay [2], the EC50 was 180 pM and the Emax amounted to 86%.

For the compound `CC(C)C[C@@H](NC(=O)[C@@H](Cc1ccccc1)NC(=O)[C@H](N)Cc1ccccc1)C(=O)N[C@H](CCCCN)C(=O)N1CCC2(CC1)C(=O)NCN2c1ccccc1` [Compound (33), D-Phe-D-Phe-D-Leu-D-Lys-[1-phenyl-1,3,8-triazaspiro[4.5]decan-4-one amide]], the Emax in assay [1] came out at 86%; in assay [2] it was 101%.

As to `CNCCCC[C@@H](NC(=O)[C@@H](CC(C)C)NC(=O)[C@@H](Cc1ccccc1)NC(=O)[C@H](N)Cc1ccccc1)C(=O)N1CCC(N2CCC[C@H]2C(=O)O)CC1` [Compound (6), D-Phe-D-Phe-D-Leu-(ε-Me)D-Lys-[N-(4-piperidinyl)-L-proline]-OH], the EC50 in assay [1] was determined as 36 pM; in assay [2], 130 pM. Besides, the results for the Emax in assay [1] and in assay [2] were 94% and 100%, respectively.

As to `CCCC[C@@H](NC(=O)[C@@H](Cc1ccccc1)NC(=O)[C@H](N)Cc1ccccc1)C(=O)N[C@H](CNC(=N)N)C(=O)N1CCCNCC1` [Compound (21), D-Phe-D-Phe-D-Nle-(β-amidino)D-Dap-[homopiperazine amide]] (H-[dF][dF][dNle][dAgp]-Homopiperazinyl), in assay [1], a half-maximal effect (EC50) was put at 732 pM and the Emax was found to be 103%. In assay [2], the EC50 came to 1060 pM and the Emax stood at 99%.

In assay [1], `CC(C)C[C@@H](NC(=O)[C@H](N)Cc1ccccc1)C(=O)N[C@H](CCCN)C(=O)N[C@@H](CCCCNC(=O)[C@@H](CCCN)NC(=O)[C@@H](CC(C)C)NC(=O)[C@@H](Cc1ccccc1)NC(=O)[C@H](N)Cc1ccccc1)C(=O)O` [Compound (78)] registered an EC50 of 240 pM. In addition, the Emax in assay [2] was 95%.
